The text below walks through data of ChEMBL document CHEMBL1156743, “Design, synthesis, and biological evaluations of 2,5-diaryl-2,3-dihydro-1,3,4-oxadiazoline analogs of combretastatin-A4” (J Med Chem, 2010).

Each structure is given as a SMILES string. In brackets after ≈: the same amount, converted by molar mass. Activity calls are given as the source filed them. The calls are words filed in the database; no cut-off is given here.

One data set deals with L1210. In words: Antiproliferative activity against mouse L1210 cells after 72 hrs by MTT assay. The format is functional, cell-based. The settings on record: L1210, 72 h. A general note: Tetrazolium dyes change colour on reduction, which living cells bring about.
The test system of data set [1] is A10. In words: Antiproliferative activity against rat A10 cells assessed as microtubule depolymerization after 18 to 24 hrs by indirect immunofluorescence technique. The format is functional, cell-based.
The test system of data set [2] is MDA-MB-435. Nature of the data set: Antiproliferative activity against human MDA-MB-435 cells after 48 hrs by SRB assay. In kind it is functional, cell-based. The settings on record: MDA-MB-435, 48 h. (In SRB staining, fixed cells bind dye roughly in proportion to their protein.)
Data set [3] in a line: Relative aqueous solubility at pH 7.4 by filter plate assay. The format is physicochemical. The settings on record: buffer.
Data set [4] deals with MDA-MB-435. Nature of the data set: Ratio of EC50 for rat A10 cells to IC50 for human MDA-MB-435 cells. The format is functional.
Data set [5] deals with HeLa. In words: Antimitotic activity in human HeLa cells assessed as effect on DNA at 0.5 uM after 18 hrs by indirect immunofluorescence technique. In kind it is functional, cell-based.
Data set [6] concerns SK-OV-3. Nature of the data set: Antiproliferative activity against human SKOV3 cells after 48 hrs by SRB assay. In kind it is functional, cell-based. The settings on record: SK-OV-3, 48 h.
Data set [7] deals with HeLa. Nature of the data set: cells. The note with it: Homo sapiens, 48 h.
Description: Antiproliferative activity against human HeLa cells after 48 hrs by SRB assay
The test system of data set [8] is HeLa. In words: Antimitotic activity in human HeLa cells assessed as multipolar mitotic spindles at 0.5 uM after 18 hrs by indirect immunofluorescence technique. The format is functional, cell-based.
Data set [9] has as its system HeLa. Nature of the data set: Antimitotic activity in human HeLa cells assessed as gamma-tubulin containing centrosomes at 0.5 uM after 18 hrs by indirect immunofluorescence technique. The format is functional, cell-based.
The test system of data set [10] is SK-OV-3. In words: Antiproliferative activity against human SKOV3 cells expressing adenoviral MDR1 after 48 hrs by SRB assay. In kind it is functional, cell-based. The note with it: SK-OV-3, 48 h.
The subject of data set [11] is A10. In words: Antiproliferative activity against rat A10 cells assessed as microtubule depolymerization at 1 uM after 18 hrs by indirect immunofluorescence technique. In kind it is functional, cell-based.
The subject of data set [12] is MDA-MB-435. In words: Cell cycle arrest in human MDA-MB-435 cells assessed as accumulation at G2/M phase at 0.5 uM after 18 hrs by flow cytometry. The format is functional, cell-based. For orientation: A flow cytometer gives signals particle by particle.
Data set [13] has as its system HeLa. Nature of the data set: Antiproliferative activity against human HeLa cells expressing wild type beta3 tubulin after 48 hrs by SRB assay. In kind it is functional, cell-based.
Data set [14] in a line: Antiproliferative activity against mouse B16F0 cells after 72 hrs by MTT assay. The format is functional.

The term IC50 denotes the concentration needed to halve the response being measured. In the case of `COc1ccc(OC)c(C2OC(c3cc(OC)c(OC)c(OC)c3)=NN2C(C)=O)c1` (stereo unspecified), in the data set on L1210, the IC50 is 55 µM.
Same read-out and setting: the same measure for `COc1ccc(C2=NN(C(C)=O)C(c3ccccc3)O2)cc1` (stereo unspecified): > 100 µM.
As a reminder, the EC50 is the concentration giving half of the maximal effect. In general, solubility refers to the concentration that dissolves in the medium under given conditions. As for `COc1ccc(C2=NN(C(C)=O)C(c3cc(OC)cc(OC)c3)O2)cc1` (stereo unspecified), in the data set on A10 [1], the EC50 stood at 1 µM. In addition, the figures for the IC50 in the data set on L1210 and in the data set with MDA-MB-435 [2] were 0.5 µM and 0.11 µM, respectively. The compound also gave a solubility in [3] of 94 µM (≈ 33.5 µg/mL). Moreover, the Ratio in the data set with MDA-MB-435 [4] is reported as 9.1.
The corresponding values for `COc1ccc(C2=NN(C(C)=O)C(c3cc(OC)ccc3OC)O2)cc1` (stereo unspecified) are 1.3 µM, 0.5 µM, 0.2 µM, 259 µM (≈ 92.3 µg/mL) and 6.5.
On the same counts, the results for `COc1ccc(C2OC(c3cc(OC)c(OC)c(OC)c3)=NN2C(C)=O)cc1OC(C)=O` (stereo unspecified) are 10.2 µM, 3.9 µM, 3.3 µM, 112 µM (≈ 49.8 µg/mL) and 3.1.
For the compound `COc1ccc(C2=NN(C(C)=O)C(c3cc(OC)c(OC)c(OC)c3)O2)cc1` (stereo unspecified), the outcome in the data set with HeLa [5], in the data set on HeLa [8], in the data set with HeLa [9], in the data set with A10 [11] and in the data set on MDA-MB-435 [12] was Active. Moreover, the IC50 was 0.34 µM in the data set on SK-OV-3 [6]; 0.23 µM in the data set on HeLa [7]; 0.5 µM in the data set on L1210; 0.14 µM with MDA-MB-435 [2]; 0.45 µM in the data set on SK-OV-3 [10]; 0.27 µM in the data set on HeLa [13]. Further, the EC50 in the data set with A10 [1] worked out at 0.5 µM. Also, the solubility in data set [3] amounted to 257 µM (≈ 99.3 µg/mL). For the same compound, in the data set with MDA-MB-435 [4], the Ratio turned out to be 3.6.
For `COc1ccc(C2=NN(C(C)=O)C(c3ccccc3OC)O2)cc1` (stereo unspecified), inhibition in the data set on L1210 was half-maximal at 5.8 µM (IC50).
Same read-out and setting: the same measure for `COc1ccc(C2=NN(C(C)=O)C(c3cccc(Br)c3)O2)cc1` (stereo unspecified): 37 µM.
Still for that read-out and setting: the same measure for `COc1ccc(C2=NN(C(C)=O)C(c3ccc(OC)cc3)O2)cc1` (stereo unspecified): > 100 µM; for `COc1cc(C2=NN(C(C)=O)C(c3ccccc3)O2)cc(OC)c1OC` (stereo unspecified): 6.4 µM.
On the same count and under the same terms, the same measure for `COc1ccc(C2=NN(C(C)=O)C(c3ccc(OC)c(OC(C)=O)c3)O2)cc1` (stereo unspecified): > 100 µM; for `COc1ccc(C2=NN(C(C)=O)C(c3ccc([N+](=O)[O-])cc3)O2)cc1` (stereo unspecified): 68 µM.
In the data set on L1210, `COc1ccc(C2=NN(C(C)=O)C(c3cccc(OC)c3)O2)cc1` (stereo unspecified) yielded an IC50 of 41 µM.
For `COc1ccc(C2=NN(C(C)=O)C(c3ccc(OC)c([N+](=O)[O-])c3)O2)cc1` (stereo unspecified), the IC50 in the data set with L1210 is > 100 µM.
`COc1cc(C2=NN(C(C)=O)C(c3cccc([N+](=O)[O-])c3)O2)cc(OC)c1OC` (stereo unspecified) showed an IC50 in the data set on L1210 of 39 µM.
On the same count and under the same terms, the same measure for `COc1cc(OC)cc(C2OC(c3cc(OC)c(OC)c(OC)c3)=NN2C(C)=O)c1` (stereo unspecified): 5.9 µM.
On to `COc1ccc(/C=C\c2cc(OC)c(OC)c(OC)c2)cc1O` [COMBRETASTATIN A4], for which the EC50 in the data set on A10 [1] was determined as 0.007 µM. The compound further gave a solubility in data set [3] of 350 µM (≈ 111 µg/mL). In data set [14], this compound gave an Activity of 0.003 µM.
Compound `COc1ccc(C2OC(c3cc(OC)c(OC)c(OC)c3)=NN2C(C)=O)cc1` (stereo unspecified) returned a 50% inhibitory concentration (IC50) in the data set with L1210 of 57 µM.
Still for that read-out and setting: the same measure for `COc1cccc(C2OC(c3cc(OC)c(OC)c(OC)c3)=NN2C(C)=O)c1` (stereo unspecified): 45 µM.
The same measure, in the same setting: the same measure for `COc1cc(C2=NN(C(C)=O)C(c3ccc([N+](=O)[O-])cc3)O2)cc(OC)c1OC` (stereo unspecified): 4.2 µM.
Regarding `COc1cc(C2=NN(C(C)=O)C(c3cccc(Br)c3)O2)cc(OC)c1OC` (stereo unspecified), the EC50 with A10 [1] came out at 1.5 µM. The IC50 in the data set with L1210 was determined as 0.6 µM; in the data set on MDA-MB-435 [2] it was 0.15 µM. Besides, the solubility in [3] was found to be 66 µM (≈ 28.7 µg/mL). Besides, the Ratio with MDA-MB-435 [4] is recorded as 10.
Compound `COc1ccccc1C1OC(c2cc(OC)c(OC)c(OC)c2)=NN1C(C)=O` (stereo unspecified) showed an IC50 with L1210 of 48 µM.
Still for that read-out and setting: the same measure for `COc1ccc(C2=NN(C(C)=O)C(c3cccc([N+](=O)[O-])c3)O2)cc1` (stereo unspecified): 47 µM; for `COc1cc(C2=NN(C(C)=O)C(c3cc(OC)c(OC)c(OC)c3)O2)cc(OC)c1OC` (stereo unspecified): > 100 µM; for `COc1ccc(C2OC(c3cc(OC)c(OC)c(OC)c3)=NN2C(C)=O)cc1[N+](=O)[O-]` (stereo unspecified): 58 µM.
